Ki data for 27 compounds are collected here from patent publication US6632816B1, “Aromatic derivatives as HIV aspartyl protease inhibitors” (Pharmacor Inc., priority 2002, dated 2003).

In the assay the target is HIV protease (Human immunodeficiency virus type 1 group M subtype B, UniProt P04585). Put plainly: biochemical.
In turn, `COc1ccc(CC(=O)N[C@@H](Cc2cccc3ccccc23)C(=O)NCCC[C@@H](CO)N(CC(C)C)S(=O)(=O)c2ccc(N)cc2)cc1` [Example 5, (2S,4S)-N-{4-[(4-Amino-benzenesulfonyl)-isobutyl-amino]-5-hydroxy-pentyl}-2-[2-(4-methoxy-phenyl)-acetylamino]-3-naphthalen-1-yl-propionamide] returned a Ki of 11 nM. The compound `COC(=O)N[C@@H](Cc1ccccc1-c1ccc(OC)cc1)C(=O)NCCC[C@@H](CO)N(CC(C)C)S(=O)(=O)c1ccc(N)cc1` [Example 6, (1S,4S)-[1-{4-[(4-Amino-benzenesulfonyl)-isobutyl-amino]-5-hydroxy-pentylcarbamoyl}-2-(4′-methoxy-biphenyl-2-yl)-ethyl]-carbamic Acid Methyl Ester] gave an inhibition constant Ki of 13 nM. As for `CC(C)CN([C@H](CO)CCCNC(=O)[C@H](Cc1cccc2ccccc12)NC(=O)OCC(F)(F)F)S(=O)(=O)c1ccc(N)cc1` [Example 7, (1S,4S)-(1-{4-[(4-Amino-benzenesulfonyl)-isobutyl-amino]-5-hydroxy-pentylcarbamoyl}-2-naphthalen-1-yl-ethyl)-carbamic Acid 2,2,2-Trifluoro-ethyl Ester], the figure is 4 nM; as for `CC(C)CN([C@H](CO)CCCNC(=O)[C@@H](N)Cc1cccc2ccccc12)S(=O)(=O)c1ccc(N)cc1` [Example 8, (2S,4S)-2-Amino-N-{4-[(4-amino-benzenesulfonyl)-isobutyl-amino]-5-hydroxy-pentyl}-3-naphthalen-1-yl-propionamide], 1.6 nM. In turn, `CC(C)CN([C@H](CO)CCCNC(=O)[C@H](Cc1cccc2ccccc12)NC(=O)C1CCCCC1)S(=O)(=O)c1ccc(N)cc1` [Example 13, (1S,4S)-Cyclohexanecarboxylic Acid (1-{4-[(4-Amino-benzenesulfonyl)-isobutyl-amino]-5-hydroxy-pentylcarbamoyl}-2-naphthalen-1-yl-ethyl)-amide] gave a Ki of 2.3 nM. The compound `CC(C)CN([C@H](CO)CCCNC(=O)[C@@H](N)Cc1ccccc1-c1ccccc1)S(=O)(=O)c1ccc(N)cc1` [Example 14, (2S,4S)-2-Amino-N-{4-[(4-amino-benzenesulfonyl)-isobutyl-amino]-5-hydroxy-pentyl}-3-biphenyl-2-yl-propionamide] returned a Ki of 7.1 nM. In the case of `COC(=O)CN[C@@H](Cc1cccc2ccccc12)C(=O)NCCC[C@@H](CO)N(CC(C)C)S(=O)(=O)c1ccc(N)cc1` [Example 15, (1S,4S)-(1-{4-[(4-Amino-benzenesulfonyl)-isobutyl-amino]-5-hydroxy-pentylcarbamoyl}-2-naphthalen-1-yl-ethylamino)-acetic Acid Methyl Ester], the inhibition constant Ki was determined as 4.2 nM. Consider `CC(C)CN([C@H](CO)CCCNC(=O)[C@@H](NC(=O)OC(C)(C)C)C(c1ccccc1)c1ccccc1)S(=O)(=O)c1ccc(N)cc1` [Example 16, (1S,4S)-(1-{4-[(4-Amino-benzenesulfonyl)-isobutyl-amino]-5-hydroxy-pentylcarbamoyl}-2,2-diphenyl-ethyl)-carbamic Acid tert-Butyl Ester], for which the Ki is 9.3 nM. Compound `COCCOC(=O)N[C@@H](Cc1cccc2ccccc12)C(=O)NCCC[C@@H](CO)N(CC(C)C)S(=O)(=O)c1ccc(N)cc1` [Example 17, (1S,4S)-(1-{4-[(4-Amino-benzenesulfonyl)-isobutyl-amino]-5-hydroxy-pentylcarbamoyl}-2-naphthalen-1-yl-ethyl)-carbamic Acid 2-Methoxy-ethyl Ester] showed an inhibition constant (Ki) of 3.7 nM. For `CCOC(=O)N[C@@H](Cc1cccc2ccccc12)C(=O)NCCC[C@@H](CO)N(CC(C)C)S(=O)(=O)c1ccc(N)cc1` [Example 18, (1S,4S)-(1-{4-[(4-Amino-benzenesulfonyl)-isobutyl-amino]-5-hydroxy-pentylcarbamoyl}-2-naphthalen-1-yl-ethyl)-carbamic Acid Ethyl Ester], the Ki amounted to 3.9 nM. For `COCC(=O)N[C@@H](Cc1cccc2ccccc12)C(=O)NCCC[C@@H](CO)N(CC(C)C)S(=O)(=O)c1ccc(N)cc1` [Example 19, (2S,4S)-N-{4-[(4-Amino-benzenesulfonyl)-isobutyl-amino]-5-hydroxy-pentyl}-2-(2-methoxy-acetylamino)-3-naphthalen-1-yl-propionamide], the affinity, expressed as Ki, was 2.6 nM. For `CCCCN[C@@H](Cc1cccc2ccccc12)C(=O)NCCC[C@@H](CO)N(CC(C)C)S(=O)(=O)c1ccc(N)cc1` [Example 20, (2S,4S)-N-{4-[(4-Amino-benzenesulfonyl)-isobutyl-amino]-5-hydroxy-pentyl}-2-butylamino-3-naphthalen-1-yl-propionamide] the value was 4.4 nM; for `CC(=O)OCCN[C@@H](Cc1cccc2ccccc12)C(=O)NCCC[C@@H](CO)N(CC(C)C)S(=O)(=O)c1ccc(N)cc1` [Example 21, (1S,4S)-Acetic Acid 2-(1-{4-[(4-Amino-benzenesulfonyl)-isobutyl-amino]-5-hydroxy-pentylcarbamoyl}-2-naphthalen-1-yl-ethylamino)-ethyl Ester], 3.9 nM; for `CCCN[C@@H](Cc1cccc2ccccc12)C(=O)NCCC[C@@H](CO)N(CC(C)C)S(=O)(=O)c1ccc(N)cc1` [Example 22, (2S,4S)-N-{4-[(4-Amino-benzenesulfonyl)-isobutyl-amino]-5-hydroxy-pentyl}-3-naphthalen-1-yl-2-propylamino-propionamide], 2.5 nM. `CC(C)CN([C@H](CO)CCCNC(=O)[C@H](Cc1cccc2ccccc12)NC(=O)C1CCCC1)S(=O)(=O)c1ccc(N)cc1` [Example 23, (1S,4S)-Cyclopentanecarboxylic Acid (1-{4-[(4-Amino-benzenesulfonyl)-isobutyl-amino]-5-hydroxy-pentylcarbamoyl}-2-naphthalen-1-yl-ethyl)-amide]: the affinity corresponds to a Ki of 2 nM. For `CC(C)CN([C@H](CO)CCCNC(=O)[C@@H](N)C(c1ccccc1)c1ccccc1)S(=O)(=O)c1ccc(N)cc1` [Example 24, (2S,4S)-2-Amino-N-{4-[(4-amino-benzenesulfonyl)-isobutyl-amino]-5-hydroxy-pentyl}-3,3-diphenyl-propionamide], the affinity corresponds to a Ki of 7.5 nM. Turning to `CC(C)CN[C@@H](Cc1cccc2ccccc12)C(=O)NCCC[C@@H](CO)N(CC(C)C)S(=O)(=O)c1ccc(N)cc1` [Example 25, (2S,4S)-N-{4-[(4-Amino-benzenesulfonyl)-isobutyl-amino]-5-hydroxy-pentyl}-2-isobutylamino-3-naphthalen-1-yl-propionamide], the Ki is 3.7 nM. In turn, `CCN[C@@H](Cc1cccc2ccccc12)C(=O)NCCC[C@@H](CO)N(CC(C)C)S(=O)(=O)c1ccc(N)cc1` [Example 26, (2S,4S)-N-{4-[(4-Amino-benzenesulfonyl)-isobutyl-amino]-5-hydroxy-pentyl}-2-ethylamino-3-naphthalen-1-yl-propionamide] showed a Ki of 3 nM.

In turn, `CC(C)CN([C@H](CO)CCCNC(=O)[C@H](Cc1cccc2ccccc12)NCC(=O)O)S(=O)(=O)c1ccc(N)cc1` [Example 27, (1S,4S)-(1-{4-[(4-Amino-benzenesulfonyl)-isobutyl-amino]-5-hydroxy-pentylcarbamoyl}-2-naphthalen-1-yl-ethylamino)-acetic Acid] registered a Ki of 2.5 nM. `COC(=O)N[C@@H](Cc1cccc2ccccc12)C(=O)NCCCC[C@@H](CO)N(CC(C)C)S(=O)(=O)c1ccc(N)cc1` [Example 28, (1S,5S)-(1-{5-[(4-Amino-benzenesulfonyl)-isobutyl-amino]-6-hydroxy-hexylcarbamoyl}-2-naphthalen-1-yl-ethyl)-carbamic Acid Methyl Ester] registered a Ki of 1.2 nM. Consider `COC(=O)N[C@@H](Cc1ccc2ccccc2c1)C(=O)NCCCC[C@@H](CO)N(CC(C)C)S(=O)(=O)c1ccc(N)cc1` [Example 29, (1S,5S)-(1-{5-[(4-Amino-benzenesulfonyl)-isobutyl-amino]-6-hydroxy-hexylcarbamoyl}-2-naphthalen-2-yl-ethyl)-carbamic Acid Methyl Ester], for which the Ki came to 1.2 nM. As for `CC(C)CN([C@H](CO)CCCCNC(=O)[C@H](Cc1ccc2ccccc2c1)NC(=O)C1CCCCC1)S(=O)(=O)c1ccc(N)cc1` [Example 42, (1S,5S)-Cyclohexanecarboxylic Acid (1-{5-[(4-Amino-benzenesulfonyl)-isobutyl-amino]-6-hydroxy-hexylcarbamoyl}-2-naphthalen-2-yl-ethyl)-amide], the figure is 1.2 nM. `CC(C)CN([C@H](CO)CCCCNC(=O)[C@@H](N)Cc1ccc2ccccc2c1)S(=O)(=O)c1ccc(N)cc1` [Example 49, (2S,5S)-2-Amino-N-{5-[(4-amino-benzenesulfonyl)-isobutyl-amino]-6-hydroxy-hexyl}-3-naphthalen-2-yl-propionamide] registered a Ki of 1.3 nM. `COC(=O)N[C@@H](Cc1ccccc1-c1cccc(F)c1)C(=O)NCCCC[C@@H](CO)N(CC(C)C)S(=O)(=O)c1ccc(N)c(Cl)c1` [Example 57, (1S,5S)-[1-{5-[(4-Amino-3-chloro-benzenesulfonyl)-isobutyl-amino]-6-hydroxy-hexylcarbamoyl}-2-(3′-fluoro-biphenyl-2-yl)-ethyl]-carbamic Acid Methyl Ester] came in with a Ki of 1.7 nM.

For `CC(C)CN([C@H](CO)CCCCNC(=O)[C@H](Cc1ccc(-c2ccccc2)cc1)NC(=O)OC(C)(C)C)S(=O)(=O)c1ccc(N)cc1` [Example 59, (1S,5S)-(1-{5-[(4-Amino-benzenesulfonyl)-isobutyl-amino]-6-hydroxy-hexylcarbamoyl}-2-biphenyl-4-yl-ethyl)-carbamic Acid tert-Butyl Ester], the affinity, expressed as Ki, was 6 nM. With `CC(C)CN([C@H](CO)CCCCNC(=O)[C@H](Cc1ccc2ccccc2c1)NC(=O)C1CCCC1)S(=O)(=O)c1ccc(N)cc1` [Example 60, (1S,5S)-Cyclopentanecarboxylic Acid (1-{5-[(4-Amino-benzenesulfonyl)-isobutyl-amino]-6-hydroxy-hexylcarbamoyl}-2-naphthalen-2-yl-ethyl)-amide], the Ki was 1.9 nM. As for `CC(C)CN[C@@H](Cc1ccc2ccccc2c1)C(=O)NCCCC[C@@H](CO)N(CC(C)C)S(=O)(=O)c1ccc(N)cc1` [Example 63, (2S,5S)-N-{5-[(4-Amino-benzenesulfonyl)-isobutyl-amino]-6-hydroxy-hexyl}-2-isobutylamino-3-naphthalen-2-yl-propionamide], the affinity corresponds to a Ki of 3.9 nM.
